Reference: patent US7659299B2, “Compounds inhibiting the binding of sap for treating osteoarthritis” (Pentraxin Therapeutics Limited, priority 2003, dated 2010)
“And” between values parts separate entries of the source, which are not always exact repeats. Equal values may be shown once.

Tests used:
SAP [1] = biological target: T1, SAP (Homo sapiens, UniProt P02743); assay: Inhibition of binding of 125I radiolabelled SAP to native long chromatin immobilized in microtitre plates; set-up: 5 μl of radiolabelled SAP in TN; from tissue; conditions: read-out: Percent inhibition of binding of radiolabelled SAP to immobilized native long chromatin
T1 sequence (P02743 20-223): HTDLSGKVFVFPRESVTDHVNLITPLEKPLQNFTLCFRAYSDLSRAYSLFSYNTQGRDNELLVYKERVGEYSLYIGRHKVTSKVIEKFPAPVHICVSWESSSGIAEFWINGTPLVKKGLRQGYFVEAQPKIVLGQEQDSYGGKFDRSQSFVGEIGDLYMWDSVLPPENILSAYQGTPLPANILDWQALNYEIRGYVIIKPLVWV

SAP [2] = biological target: T1, SAP; assay: Inhibition of binding of 125I radiolabelled SAP to Neisseria meningitidis immobilized in microtitre plates; set-up: 5 μl of radiolabelled SAP in TN; from tissue; conditions: read-out: Percent inhibition of binding of radiolabelled SAP to immobilized Neisseria meningitidis
SAP [3] = biological target: T1, SAP; assay: Inhibition of binding of 125I radiolabelled SAP to influenza virus immobilized in microtitre plates; set-up: 5 μl of radiolabelled SAP in TN; from tissue; conditions: read-out: Percent inhibition of binding of radiolabelled SAP to immobilized influenza virus
SAP [4] = biological target: T1, SAP; assay: Isothermal calorimetry: dissociation constants between SAP and compounds; type: binding; conditions: replicate measurements, read-out: Kd in micromoles per liter (replicate measurements)
Description: Surface plasmon resonance (SPR) is a low throughput but powerfully informative method to identify compounds that are bound by, or themselves bind to SAP, either in a calcium dependent fashion or independently of calcium, for the purposes of the present invention. For example, low molecular weight compounds that inhibit binding of SAP to its macromolecular ligands, including target ligands relevant to the present invention, can be detected by their effect on the signal generated by fluid phase SAP binding to ligand immobilised on the solid phase (Example A). Furthermore, when SAP itself is immobilised on the solid phase in an SPR instrument, the interaction with it of test molecules provided in the fluid phase generates a signal that can be detected and quantified. Purified SAP immobilized within an SPR instrument gives a quantifiable signal when it is exposed to another molecule that forms a complex with the SAP, and this is distinct from the absence of such a signal if no complex is formed. […] Another low throughput but powerful direct method is isothermal calorimetry that measures the heat of interaction in solution between SAP and test compounds according to the present invention. The binding affinity can be measured precisely as a guide to potential efficacy. Typical results by this method for the dissociation constants, Kd, between SAP and various compounds are as follows: […]

In the case of O=C(O)[C@H]1CCCN1C(=O)CCCCC(=O)N1CCC[C@@H]1C(=O)O [Ro-63-8695, (R)-1-[6-[(R)-2-Carboxy-pyrrolidin-1-yl]-6-oxo-hexanoyl]pyrrolidine-2-carboxylic acid], the inhibition at 0.2 µM (SAP [1]; compound 200 nM) is reported as 1%, the inhibition at 2 µM (SAP [1]; compound 2 μM) is reported as 29% and the inhibition at 20 µM (SAP [1]; compound 20 μM) is reported as 69%. It also gave an inhibition at 200 µM (SAP [1]; compound 200 μM) of 87%, an inhibition at 2000 µM (SAP [1]; compound 2 mM) of 93% and an inhibition at 0.2 µM (SAP [2]; compound 200 nM) of 5%. The inhibition at 2 µM (SAP [2]; compound 2 μM) was 61%, the inhibition at 20 µM (SAP [2]; compound 20 μM) was 74% and the inhibition at 200 µM (SAP [2]; compound 200 μM) was 79%. The inhibition at 2000 µM (SAP [2]; compound 2 mM) was 100%, the inhibition at 0.2 µM (SAP [3]; compound 200 nM) was 36% and the inhibition at 2 µM (SAP [3]; compound 2 μM) was 81%. For the same compound, the inhibition at 20 µM (SAP [3]; compound 20 μM) was 90%, the inhibition at 200 µM (SAP [3]; compound 200 μM) was 96% and the inhibition at 2000 µM (SAP [3]; compound 2 mM) was 98%. For the same compound, the Kd (SAP [4]) was 13.9 nM and 5.9 nM and 6.5 nM and 8.8 nM.
